Usually EC50 stands for the concentration that produces a half-maximal response. Read a high EC50 as lower potency in that assay.

The structures appear in SMILES notation.

The assay has as its system HIV-1 LAI envelope single-round infectious reporter virus. Description: Single-round infectious luciferase reporter virus infection of MT2 cells. The assay is classed as cell-based. Particulars: Human immunodeficiency virus 1, MT2, 72 h. An excerpt: • Virus production—Human embryonic Kidney cell line, 293T (HEK 293T), was propagated in Dulbecco's Modified Eagle Medium (Invitrogen, Carlsbad, Calif.) containing 10% fetal Bovine serum (FBS, Sigma, St. Louis, Mo.). The human T-cell leukemia cell MT2 (AIDS Research and Reference Reagent Program, Cat. 237) was propagated in RPMI 1640 (Invitrogen, Carlsbad, Calif.) containing 10% fetal bovine serum (FBS, Hyclone, Logan, Utah) • Virus infection—Single-round infectious reporter virus was produced by co-transfecting HEK 293T cells with plasmide expressing the HIV-1 LAI envelope along with a plasmid containing an HIV-1 LAI proviral cDNA with the envelope gene replaced by a firefly luciferase reporter gene (Chen et al, Ref 41). Transfections were performed using lipofectAMINE PLUS reagent as described by the manufacturer (Invitrogen, Carlsbad, Calif.).
• 1. MT2 cells were plated in black, 384 well plates at a cell density of 5×10^3 cells per well in 25 μl RPMI 1640 containing 10% FBS. • 2. Compound (diluted in dimethylsulfoxide and growth medium) was added to cells at 12.5 μl/well, so that the final assay concentration would be ≦50 nM. • 3. 12.5 μl of single-round infectious reporter virus in Dulbecco's Modified Eagle Medium was added to the plated cells and compound at an approximate multiplicity of infection (MOI) of 0.01, resulting in a final volume of 50 μl per well. • 4. Virus-infected cells were incubated at 37 degrees Celsius, in a CO2 incubator, and harvested 72 h after infection. • 5. Viral infection was monitored by measuring luciferase expression in the infected cells using a luciferase reporter gene assay kit (Steady-Glo, Promega, Madison, Wis.) as described by the manufacturer. Luciferase activity was then quantified by measuring luminescence using an EnVision Multilabel Plate Readers (PerkinElmer, Waltham, Mass.). • 6. The percent inhibition for each compound was calculated by quantifying the level of luciferase expression in cells infected in the presence of each compound as a percentage of that observed for cells infected in the absence of compound and subtracting such a determined value from 100. • 7. An EC50 provides a method for comparing the antiviral potency of the compounds of this disclosure. The effective concentration for fifty percent inhibition (EC50) was calculated with the Microsoft Excel Xlfit curve fitting software. For each compound, curves were generated from percent inhibition calculated at 10 different concentrations by using a four paramenter logistic model (model 205).
`[2H]c1c([2H])c([2H])c(C(=O)N2C([2H])([2H])C([2H])([2H])N(C(=O)C(=O)c3c[nH]c4c(OC)ncc(OC)c34)C([2H])([2H])C2([2H])[2H])c([2H])c1[2H]` [Compound 0001]: it took 670 pM to reach a half-maximal effect (EC50). This lies in the sub-nanomolar range. Next, `[2H]c1c([2H])c([2H])c(C(=O)N2CCN(C(=O)C(=O)c3c[nH]c4c(OC)ncc(OC)c34)CC2)c([2H])c1[2H]` [Compound 0002]: 630 pM; `[2H]C1([2H])N(C(=O)C(=O)c2c[nH]c3c(OC)ncc(OC)c23)C([2H])([2H])C([2H])([2H])N(C(=O)c2ccccc2)C1([2H])[2H]` [Compound 0003]: 550 pM; `[2H]c1c([2H])c([2H])c(C(=O)N2C([2H])([2H])C([2H])([2H])N(C(=O)C(=O)c3c[nH]c4c(-n5ccnn5)ncc(OC)c34)C([2H])([2H])C2([2H])[2H])c([2H])c1[2H]` [Compound 0004]: 100 pM. For `[2H]c1c([2H])c([2H])c(C(=O)N2CCN(C(=O)C(=O)c3c[nH]c4c(-n5ccnn5)ncc(OC)c34)CC2)c([2H])c1[2H]` [Compound 0005] the value was 240 pM; for `[2H]C1([2H])N(C(=O)C(=O)c2c[nH]c3c(-n4ccnn4)ncc(OC)c23)C([2H])([2H])C([2H])([2H])N(C(=O)c2ccccc2)C1([2H])[2H]` [Compound 0006], 80 pM; for `[2H]c1c([2H])c([2H])c(C(=O)N2C([2H])([2H])C([2H])([2H])N(C(=O)C(=O)c3c[nH]c4c(-n5ccnn5)ncc(F)c34)C([2H])([2H])C2([2H])[2H])c([2H])c1[2H]` [Compound 0007], 110 pM. For the molecule `[2H]c1c([2H])c([2H])c(C(=O)N2CCN(C(=O)C(=O)c3c[nH]c4c(-n5ccnn5)ncc(F)c34)CC2)c([2H])c1[2H]` [Compound 0008], a half-maximal effect (EC50) was put at 100 pM.

Molecule `[2H]C1([2H])N(C(=O)C(=O)c2c[nH]c3c(-n4ccnn4)ncc(F)c23)C([2H])([2H])C([2H])([2H])N(C(=O)c2ccccc2)C1([2H])[2H]` [Compound 0009] gave an EC50 of 140 pM. For `[2H]c1c([2H])c([2H])c(C(=O)N2C([2H])([2H])C([2H])([2H])N(C(=O)C(=O)c3c[nH]c4c(-n5cnc(C)n5)ncc(OC)c34)C([2H])([2H])C2([2H])[2H])c([2H])c1[2H]` [Compound 0010] the value was 60 pM. Next, `[2H]c1c([2H])c([2H])c(C(=O)N2CCN(C(=O)C(=O)c3c[nH]c4c(-n5cnc(C)n5)ncc(OC)c34)CC2)c([2H])c1[2H]` [Compound 0011]: 120 pM; `[2H]C1([2H])N(C(=O)C(=O)c2c[nH]c3c(-n4cnc(C)n4)ncc(OC)c23)C([2H])([2H])C([2H])([2H])N(C(=O)c2ccccc2)C1([2H])[2H]` [Compound 0012]: 70 pM.
